According to ChEMBL document CHEMBL5352419, “Design, synthesis, and biological evaluation of tetrahydroquinoline amphiphiles as membrane-targeting antimicrobials against pathogenic bacteria and fungi” (Eur J Med Chem, 2022):
≈ marks a conversion by molar mass, not a printed value. Calls of active or inactive are those of the source. The calls are words filed in the database; no cut-off is given here.

Experiments:
[1] = Cytotoxicity against mouse J774.A1 cells assessed as viable cells at 6.25 ug/mL incubated for 24 hrs by CCK-8 assay relative to control; type: toxicity, cell-based; details: at 6.25 µg/mL, read-out: Activity
Candida albicans [2] = assay: Antimicrobial activity against Candida albicans ATCC10231 assessed as fungal growth inhibition incubated for 48 hrs in presence of 100 ug/mL Ca2+ by Sabouraud Dextrose broth based dilution assay; type: functional
[3] = Hemolytic activity in rabbit RBC incubated for 1 hr by absorbance based microplate reader assay; type: toxicity, cell-based, Oryctolagus cuniculus, Erythrocyte; details: rabbit red blood cells (erythrocytes)
Escherichia coli [4] = assay: Antimicrobial activity against Escherichia coli ATCC25922 assessed as bacterial growth inhibition incubated for 24 hrs in presence of 100 ug/mL Ca2+ by Muller Hinton broth based dilution assay; type: functional
Pseudomonas aeruginosa [5] = assay: In vivo antibacterial activity against Pseudomonas aeruginosa ATCC9027 infected in keratitis C57BL/6 mouse model assessed as log reduction in bacterial load at 0.5 % administered topically 4 times per day for 3 days; type: functional; details: time 3 day
Cell membrane [6] = assay: Disruption of membrane integrity in Escherichia coli ATCC25922 assessed as increase in fluorescence intensity at 1 to 8 times of MIC measured for 1 hr by SYTOX green dye based fluorescence analysis
Staphylococcus aureus [7] = assay: Disruption of preformed biofilm in Staphylococcus aureus ATCC29213 assessed as residual preformed biofilm at 3.125 ug/mL incubated for 24 hrs by crystal violet staining based analysis relative to control; type: functional; details: dose 3.125 µg/ml
[8] = Cytotoxicity against mouse J774.A1 cells assessed as viable cells at 12.5 ug/mL incubated for 24 hrs by CCK-8 assay relative to control; type: toxicity, cell-based; details: at 12.5 µg/mL, read-out: Activity
Staphylococcus aureus [9] = assay: Antimicrobial activity against methicillin-resistant Staphylococcus aureus NCTC10442 assessed as bacterial growth inhibition incubated for 24 hrs in presence of 3220 ug/mL Na+ by Muller Hinton broth based dilution assay; type: functional
Staphylococcus aureus [10] = assay: Disruption of preformed biofilm in Staphylococcus aureus ATCC29213 assessed as residual preformed biofilm at 6.25 ug/mL incubated for 24 hrs by crystal violet staining based analysis relative to control; type: functional; details: dose 6.25 µg/ml
Escherichia coli [11] = assay: Antibiofilm activity against Escherichia coli ATCC25922 assessed as inhibition of biofilm formation at 3.125 ug/mL incubated for 24 hrs by crystal violet staining based analysis relative to control; type: functional
[12] = Cytotoxicity against mouse corneal epithelial cells assessed as viable cells at 6.25 ug/mL incubated for 24 hrs by CCK-8 assay relative to control; type: toxicity, cell-based, Corneal epithelial cell; details: at 6.25 µg/mL, read-out: Activity
Staphylococcus aureus [13] = assay: Antimicrobial activity against Staphylococcus aureus ATCC29213 assessed as bacterial growth inhibition incubated for 24 hrs in presence of 100 ug/mL Ca2+ by Muller Hinton broth based dilution assay; type: functional
Staphylococcus aureus [14] = assay: Antimicrobial activity against Staphylococcus aureus ATCC29213 assessed as bacterial growth inhibition incubated for 24 hrs by Muller Hinton broth based dilution assay; type: functional
Staphylococcus aureus [15] = assay: Antimicrobial activity against methicillin-resistant Staphylococcus aureus NCTC10442 assessed as bacterial growth inhibition incubated for 24 hrs by Muller Hinton broth based dilution assay; type: functional
Acinetobacter baumannii = assay: Antimicrobial activity against Acinetobacter baumannii ATCC17978 assessed as bacterial growth inhibition incubated for 24 hrs in presence of 3220 ug/mL Na+ by Muller Hinton broth based dilution assay; type: functional
Escherichia coli [16] = assay: Disruption of preformed biofilm in Escherichia coli ATCC25922 assessed as residual preformed biofilm at 0.78 ug/mL incubated for 24 hrs by crystal violet staining based analysis relative to control; type: functional; details: dose 0.78 µg/ml
[17] = Cytotoxicity against mouse J774.A1 cells assessed as viable cells at 3.125 ug/mL incubated for 24 hrs by CCK-8 assay relative to control; type: toxicity, cell-based; details: at 3.125 µg/mL, read-out: Activity
[18] = Cytotoxicity against mouse corneal epithelial cells assessed as viable cells at 50 ug/mL incubated for 24 hrs by CCK-8 assay relative to control; type: toxicity, cell-based, Corneal epithelial cell; details: at 50 µg/mL, read-out: Activity
Staphylococcus aureus [19] = assay: Antimicrobial activity against Staphylococcus aureus ATCC29213 assessed as log reduction in microbial load at 4 times of MIC measured at 1 hr by time-kill kinetics assay; type: functional
Candida albicans [20] = assay: Antimicrobial activity against Candida albicans ATCC10231 assessed as fungal growth inhibition incubated for 48 hrs in presence of 3220 ug/mL Na+ by Sabouraud Dextrose broth based dilution assay; type: functional
[21] = Cytotoxicity against mouse NCTC clone 929 cells assessed as viable cells at 50 ug/mL incubated for 24 hrs by CCK-8 assay relative to control; type: toxicity, cell-based; details: NCTC clone 929 (L929) cells, at 50 µg/mL, read-out: Activity
Candida albicans [22] = assay: Antimicrobial activity against Candida albicans ATCC10231 assessed as fungal growth inhibition incubated for 48 hrs in presence of 175.5 ug/mL K+ by Sabouraud Dextrose broth based dilution assay; type: functional
Cell membrane [23] = assay: Disruption of membrane integrity in Staphylococcus aureus ATCC29213 assessed as increase in fluorescence intensity at 1 to 8 times of MIC measured for 1 hr by SYTOX green dye based fluorescence analysis
Candida albicans [24] = assay: Induction of drug resistance in Candida albicans ATCC10231 assessed as change in MIC at sub-inhibitory concentration incubated for 21 to 22 passages; type: functional
Escherichia coli [25] = assay: Disruption of preformed biofilm in Escherichia coli ATCC25922 assessed as residual preformed biofilm at […] ug/mL incubated for 24 hrs by crystal violet staining based analysis relative to control; type: functional; details: dose […] microg/ml, 1.56 ug/mL
Staphylococcus aureus [26] = assay: Antimicrobial activity against Staphylococcus aureus ATCC29213 assessed as bacterial killing at 1 to 8 times of MIC measured upto 24 hrs by time-kill kinetics assay; type: functional, organism-based
Cell membrane [27] = assay: Disruption of membrane integrity in Candida albicans ATCC10231 assessed as red fluorescence at 8 times of MIC incubated for 2 hrs under dark condition by SYTO 9 and PI staining based laser confocal microscopy analysis
Escherichia coli [28] = assay: Antimicrobial activity against Escherichia coli ATCC25922 assessed as bacterial growth inhibition incubated for 24 hrs in presence of 3220 ug/mL Na+ by Muller Hinton broth based dilution assay; type: functional
Staphylococcus aureus [29] = assay: Antimicrobial activity against methicillin-resistant Staphylococcus aureus NCTC10442 assessed as bacterial growth inhibition incubated for 24 hrs in presence of 100 ug/mL Ca2+ by Muller Hinton broth based dilution assay; type: functional
Staphylococcus aureus [30] = assay: Antimicrobial activity against methicillin-resistant Staphylococcus aureus N315 assessed as bacterial growth inhibition incubated for 24 hrs by Muller Hinton broth based dilution assay; type: functional
Pseudomonas aeruginosa [31] = assay: Antimicrobial activity against Pseudomonas aeruginosa ATCC9027 assessed as bacterial growth inhibition incubated for 24 hrs by Muller Hinton broth based dilution assay; type: functional
Escherichia coli [32] = assay: Disruption of preformed biofilm in Escherichia coli ATCC25922 assessed as residual preformed biofilm at 12.5 ug/mL incubated for 24 hrs by crystal violet staining based analysis relative to control; type: functional; details: dose 12.5 µg/ml
Escherichia coli [33] = assay: Disruption of preformed biofilm in Escherichia coli ATCC25922 assessed as residual preformed biofilm at 25 ug/mL incubated for 24 hrs by crystal violet staining based analysis relative to control; type: functional; details: dose 25 µg/ml

| SMILES | viability at 24 h, 6.25 ug/mL [1] | MIC (Candida albicans [2]) | HC50 at 1 h [3] | MIC (Escherichia coli [4]) | log(activity) (Pseudomonas aeruginosa [5]) | Activity (Cell membrane [6]) | Activity (Staphylococcus aureus [7]) | viability at 24 h, 12.5 ug/mL [8] | MIC (Staphylococcus aureus [9]) | Activity (Staphylococcus aureus [10]) | inhibition at 3.125 µg/mL (Escherichia coli [11]) | viability at 24 h, 6.25 ug/mL [12] | MIC (Staphylococcus aureus [13]) | MIC (Staphylococcus aureus [14]) | MIC (Staphylococcus aureus [15]) | MIC (Acinetobacter baumannii) | Activity (Escherichia coli [16]) | viability at 24 h, 3.125 ug/mL [17] | viability at 24 h, 50 ug/mL [18] | log(activity) (Staphylococcus aureus [19]) | further results |
| --- | --- | --- | --- | --- | --- | --- | --- | --- | --- | --- | --- | --- | --- | --- | --- | --- | --- | --- | --- | --- | --- |
| CCCCCCCCCN1CCCc2cc(OCCCCNC(=N)N)ccc21 | 97.4% | 1.56 µg/mL | > 200 µg/mL | 3.12 µg/mL | 3.2 | Dose-Dependent Effect | 10.76% | 91.9% | 0.78 µg/mL | 4.69% | 96.2% | 88.9% | 0.78 µg/mL | 1.56 µg/mL (≈ 4.01 µM) | 1.56 µg/mL (≈ 4.01 µM) | 3.12 µg/mL | 93.41% | 98.3% | 8.36% | >3 | MIC (Candida albicans [20]): 1.56 µg/mL; viability at 24 h, 50 ug/mL [21]: 23.7%; MIC (Candida albicans [22]): 1.56 µg/mL; Activity (Cell membrane [23]): Dose-Dependent Effect; Activity (Candida albicans [24]): inactive; Activity (Escherichia coli [25]): 72.32%; Activity (Staphylococcus aureus [26]): Dose-Dependent Effect; Activity (Cell membrane [27]): Active; MIC (Escherichia coli [28]): 1.56 µg/mL; MIC (Staphylococcus aureus [29]): 0.78 µg/mL; MIC (Staphylococcus aureus [30]): 0.78 µg/mL (≈ 2.01 µM); MIC (Pseudomonas aeruginosa [31]): 6.25 µg/mL (≈ 16.1 µM); Activity (Escherichia coli [32]): 8.81%; Activity (Escherichia coli [33]): 1.67% |
| CC(C)=CCN1CCCc2cc(OCCCCCCCCNC(=N)N)ccc21 | 96.3% | 1.56 µg/mL | > 200 µg/mL | 3.12 µg/mL | 3.4 | Dose-Dependent Effect | 29.55% | 90% | 0.78 µg/mL | 10.5% | 92.8% | 93.6% | 0.78 µg/mL | 1.56 µg/mL (≈ 4.04 µM) | 0.78 µg/mL (≈ 2.02 µM) | 3.12 µg/mL | 96.08% | 99.5% | 36.3% | >3 | MIC (Candida albicans [20]): 0.78 µg/mL; viability at 24 h, 50 ug/mL [21]: 29.9%; MIC (Candida albicans [22]): 0.78 µg/mL; Activity (Cell membrane [23]): Dose-Dependent Effect; Activity (Candida albicans [24]): inactive; Activity (Escherichia coli [25]): 85.82%; Activity (Staphylococcus aureus [26]): Dose-Dependent Effect; Activity (Cell membrane [27]): Active; MIC (Escherichia coli [28]): 3.12 µg/mL; MIC (Staphylococcus aureus [29]): 0.78 µg/mL; MIC (Staphylococcus aureus [30]): 0.78 µg/mL (≈ 2.02 µM); MIC (Pseudomonas aeruginosa [31]): 6.25 µg/mL (≈ 16.2 µM); Activity (Escherichia coli [32]): 6.85%; Activity (Escherichia coli [33]): 4.34% |
